Data reported in PubChem BioAssay AID1963449 (Molecular Pharmacology Branch, DTP, NCI, 2024).

Test system: 596521-263-R-J1-PDC complex spheroid growth
Assay: Anticancer human tumor 596521-263-R-J1-PDC patient-derived soft tissue sarcoma cell line growth inhibition [Asc]
Conditions: for IC50: curve of first compound; for viability, T/C: stronger effect = lower value
How it was run: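 Spheroid model: tumor line + HUVEC + hMSC. Single agents and combinations; top conc. at/near clinical Cmax (10 microM if undetermined), half-log dilutions. DMSO stocks at 800-fold test concentration.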
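Further: spheroids exposed to compounds for 7 days.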

NC(=O)C(=Cn1cnc(-c2cc(C(F)(F)F)cc(C(F)(F)F)c2)n1)c1cncnc1 + CCN1C(C(=O)NC23CCC(C(=O)O)(CC2)CC3)C(c2cccc(Cl)c2F)C2(C(=O)Nc3cc(Cl)ccc32)C12CCCCC2
IC50 (second compound 0.00949 µM): 32.9 nM
IC50 (second compound 0.03 µM): 33.6 nM
IC50 (second compound 0.0949 µM): 37.4 nM
IC50 (second compound 0.3 µM): 29.4 nM
IC50 (second compound 0.949 µM): 35.1 nM
IC50 (second compound 3 µM): 28.2 nM
viability, T/C (second compound 0.00949 µM, first compound 0.000949 µM): 92%
viability, T/C (second compound 0.00949 µM, first compound 0.003 µM): 97.2%
viability, T/C (second compound 0.00949 µM, first compound 0.00949 µM): 68.5%
viability, T/C (second compound 0.00949 µM, first compound 0.03 µM): 61.4%
viability, T/C (second compound 0.00949 µM, first compound 0.0949 µM): 15.4%
viability, T/C (second compound 0.00949 µM, first compound 0.3 µM): 10.3%
viability, T/C (second compound 0.03 µM, first compound 0.000949 µM): 102%
viability, T/C (second compound 0.03 µM, first compound 0.003 µM): 96.3%
viability, T/C (second compound 0.03 µM, first compound 0.00949 µM): 78.8%
viability, T/C (second compound 0.03 µM, first compound 0.03 µM): 56.8%
viability, T/C (second compound 0.03 µM, first compound 0.0949 µM): 20.4%
viability, T/C (second compound 0.03 µM, first compound 0.3 µM): 11.5%
viability, T/C (second compound 0.0949 µM, first compound 0.000949 µM): 112%
viability, T/C (second compound 0.0949 µM, first compound 0.003 µM): 108%
viability, T/C (second compound 0.0949 µM, first compound 0.00949 µM): 87.8%
viability, T/C (second compound 0.0949 µM, first compound 0.03 µM): 61.4%
viability, T/C (second compound 0.0949 µM, first compound 0.0949 µM): 17.1%
viability, T/C (second compound 0.0949 µM, first compound 0.3 µM): 10.3%
viability, T/C (second compound 0.3 µM, first compound 0.000949 µM): 127%
viability, T/C (second compound 0.3 µM, first compound 0.003 µM): 91.7%
viability, T/C (second compound 0.3 µM, first compound 0.00949 µM): 77.3%
viability, T/C (second compound 0.3 µM, first compound 0.03 µM): 56.6%
viability, T/C (second compound 0.3 µM, first compound 0.0949 µM): 18%
viability, T/C (second compound 0.3 µM, first compound 0.3 µM): 8.14%
viability, T/C (second compound 0.949 µM, first compound 0.000949 µM): 104%
viability, T/C (second compound 0.949 µM, first compound 0.003 µM): 102%
viability, T/C (second compound 0.949 µM, first compound 0.00949 µM): 79.6%
viability, T/C (second compound 0.949 µM, first compound 0.03 µM): 61%
viability, T/C (second compound 0.949 µM, first compound 0.0949 µM): 16.3%
viability, T/C (second compound 0.949 µM, first compound 0.3 µM): 11.4%
viability, T/C (second compound 3 µM, first compound 0.000949 µM): 88.2%
viability, T/C (second compound 3 µM, first compound 0.003 µM): 88.3%
viability, T/C (second compound 3 µM, first compound 0.00949 µM): 74.3%
viability, T/C (second compound 3 µM, first compound 0.03 µM): 48.4%
viability, T/C (second compound 3 µM, first compound 0.0949 µM): 22%
viability, T/C (second compound 3 µM, first compound 0.3 µM): 9.41%

COc1c(OCCCN2CCOCC2)ccc2c3n(c(=NC(=O)c4cnc(N)nc4)nc12)CCN3 + Cc1c(S(C)(=O)=O)c(-c2cc(F)cc(N3CCN(c4ccc(NS(=O)(=O)c5ccc(NC(CCN6CCC(C(=O)OCCCP(=O)(O)O)CC6)CSc6ccccc6)c(S(=O)(=O)C(F)(F)F)c5)cc4)CC3)c2)c(-c2ccc(Cl)cc2)n1C(C)C
IC50 (second compound 0.0316 µM): 211 nM
IC50 (second compound 0.1 µM): 142 nM
IC50 (second compound 0.316 µM): 138 nM
IC50 (second compound 1 µM): 73.7 nM
IC50 (second compound 3.16 µM): 55.3 nM
IC50 (second compound 10 µM): 8.21 nM
viability, T/C (second compound 0.0316 µM, first compound 0.00316 µM): 95.5%
viability, T/C (second compound 0.0316 µM, first compound 0.01 µM): 90.8%
viability, T/C (second compound 0.0316 µM, first compound 0.0316 µM): 79.2%
viability, T/C (second compound 0.0316 µM, first compound 0.1 µM): 67.3%
viability, T/C (second compound 0.0316 µM, first compound 0.316 µM): 39.9%
viability, T/C (second compound 0.0316 µM, first compound 1 µM): 29.4%
viability, T/C (second compound 0.1 µM, first compound 0.00316 µM): 89.6%
viability, T/C (second compound 0.1 µM, first compound 0.01 µM): 92.5%
viability, T/C (second compound 0.1 µM, first compound 0.0316 µM): 84.2%
viability, T/C (second compound 0.1 µM, first compound 0.1 µM): 54.6%
viability, T/C (second compound 0.1 µM, first compound 0.316 µM): 37.6%
viability, T/C (second compound 0.1 µM, first compound 1 µM): 25.6%
viability, T/C (second compound 0.316 µM, first compound 0.00316 µM): 85.6%
viability, T/C (second compound 0.316 µM, first compound 0.01 µM): 84.2%
viability, T/C (second compound 0.316 µM, first compound 0.0316 µM): 65.9%
viability, T/C (second compound 0.316 µM, first compound 0.1 µM): 58.1%
viability, T/C (second compound 0.316 µM, first compound 0.316 µM): 36.1%
viability, T/C (second compound 0.316 µM, first compound 1 µM): 25.4%
viability, T/C (second compound 1 µM, first compound 0.00316 µM): 91.6%
viability, T/C (second compound 1 µM, first compound 0.01 µM): 76.1%
viability, T/C (second compound 1 µM, first compound 0.0316 µM): 62%
viability, T/C (second compound 1 µM, first compound 0.1 µM): 47%
viability, T/C (second compound 1 µM, first compound 0.316 µM): 31.3%
viability, T/C (second compound 1 µM, first compound 1 µM): 24.9%
viability, T/C (second compound 3.16 µM, first compound 0.00316 µM): 61.5%
viability, T/C (second compound 3.16 µM, first compound 0.01 µM): 62.9%
viability, T/C (second compound 3.16 µM, first compound 0.0316 µM): 55.9%
viability, T/C (second compound 3.16 µM, first compound 0.1 µM): 43.1%
viability, T/C (second compound 3.16 µM, first compound 0.316 µM): 27.1%
viability, T/C (second compound 3.16 µM, first compound 1 µM): 18.5%
viability, T/C (second compound 10 µM, first compound 0.00316 µM): 52.4%
viability, T/C (second compound 10 µM, first compound 0.01 µM): 50%
viability, T/C (second compound 10 µM, first compound 0.0316 µM): 42.9%
viability, T/C (second compound 10 µM, first compound 0.1 µM): 41.2%
viability, T/C (second compound 10 µM, first compound 0.316 µM): 24.8%
viability, T/C (second compound 10 µM, first compound 1 µM): 13.4%
